Assay results published in US6905841B2, “Enzymatic substrates for detecting Pseudomonas aeruginas” (Biomerieux S.A., priority 1999, dated 2005).
Like-named read-outs stand apart in the source and are kept apart here.

Columns and labels:
β-alanine aminopeptidase [1] = details: Aeromonas hydrophila; 2 strains tested; read after 22 to 24 hours
β-alanine aminopeptidase [2] = details: Enterobacter intermedius; 1 strain tested; read after 22 to 24 hours
β-alanine aminopeptidase [3] = type: cell-based; details: Ochrobactrum anthropi; 1 strain tested; read after 22 to 24 hours
β-alanine aminopeptidase [4] = details: Klebsiella oxytoca; 2 strains tested; read after 22 to 24 hours
β-alanine aminopeptidase [5] = details: Serratia marcescens; 3 strains tested; read after 22 to 24 hours
β-alanine aminopeptidase [6] = details: Sphingomonas paucimobilis; 2 strains tested; read after 22 to 24 hours
β-alanine aminopeptidase [7] = details: Citrobacter freundii; 2 strains tested; read after 22 to 24 hours
β-alanine aminopeptidase [8] = details: Proteus vulgaris; 1 strain tested; read after 22 to 24 hours
β-alanine aminopeptidase [9] = details: Pseudomonas aeruginosa; 13 strains tested; read after 22 to 24 hours
β-alanine aminopeptidase [10] = details: Acinetobacter baumannii; 2 strains tested; read after 22 to 24 hours
β-alanine aminopeptidase [11] = test: APIZYM-type test strips with β-alanyl-β-naphthylamide; type: cell-based; details: Burkholderia cepacia; five strains
β-alanine aminopeptidase [12] = test: as above; type: cell-based; details: Moraxella paraphenylpyruvica; 3 strains
β-alanine aminopeptidase [13] = test: as above; type: cell-based; details: Comamonas testosteroni; five strains
β-alanine aminopeptidase [14] = test: as above; type: cell-based; details: Empedobacter brevis; 3 strains
β-alanine aminopeptidase [15] = test: as above; type: cell-based; details: Moraxella lacunata; 4 strains
β-alanine aminopeptidase [16] = test: as above; type: cell-based; details: Escherichia coli; five strains
β-alanine aminopeptidase [17] = test: as above; type: cell-based; details: Moraxella non liquefaciens; 13 strains
β-alanine aminopeptidase [18] = test: as above; type: cell-based; details: Chryseobacterium meningosepticum; five strains
β-alanine aminopeptidase [19] = test: as above; type: cell-based; details: Salmonella typhi; five strains
β-alanine aminopeptidase [20] = test: as above; type: cell-based; details: Pseudomonas alcaligenes; five strains
β-alanine aminopeptidase [21] = test: as above; type: cell-based; details: Comamonas acidovorans; five strains
β-alanine aminopeptidase [22] = test: as above; type: cell-based; details: Klebsiella pneumoniae, spp. pneumoniae; five strains
β-alanine aminopeptidase [23] = test: as above; type: cell-based; details: Myroïdes spp.; five strains
β-alanine aminopeptidase [24] = test: as above; type: cell-based; details: Pasteurella multocida; five strains
β-alanine aminopeptidase [25] = test: as above; type: cell-based; details: Vibrio parahaemolyticus; 4 strains
β-alanine aminopeptidase [26] = test: as above; type: cell-based; details: Citrobacter diversus; five strains
β-alanine aminopeptidase [27] = test: as above; type: cell-based; details: Sphingobacterium multivorum; five strains
β-alanine aminopeptidase [28] = test: as above; type: cell-based; details: Enterobacter cloacae; five strains
β-alanine aminopeptidase [29] = test: as above; type: cell-based; details: Brevundimonas vesicularis; five strains
β-alanine aminopeptidase [30] = test: as above; type: cell-based; details: Achromobacter xylosoxidans, spp. xylosoxidans; five strains
β-alanine aminopeptidase [31] = test: as above; type: cell-based; details: Moraxella osloensis; 18 strains
β-alanine aminopeptidase [32] = test: as above; type: cell-based; details: Klebsiella ozaenae; five strains
β-alanine aminopeptidase [33] = test: as above; type: cell-based; details: Psychrobacter phenylpyruvicus; 4 strains
β-alanine aminopeptidase [34] = test: as above; type: cell-based; details: Pasteurella aerogenes; five strains
β-alanine aminopeptidase [35] = type: cell-based; details: out of the seventy nine (79) tested
β-alanine aminopeptidase [36] = test: APIZYM-type test strips with β-alanyl-β-naphthylamide; type: cell-based; details: Alcaligenes faecalis/odorans; five strains
β-alanine aminopeptidase [37] = test: as above; type: cell-based; details: Klebsiella pneumoniae, spp. oxytoca; five strains
β-alanine aminopeptidase [38] = test: as above; type: cell-based; details: Shigella spp.; 4 strains
β-alanine aminopeptidase [39] = test: as above; type: cell-based; details: Brevundimonas diminuta; five strains

NCCC(=O)c1c(N)cc(Cl)c(O)c1Cl
Number of negative results (β-alanine aminopeptidase [1]): 2
Number positive results (β-alanine aminopeptidase [1]): 0
Number of negative results (β-alanine aminopeptidase [2]): 1
Number positive results (β-alanine aminopeptidase [2]): 0
Number of negative results (β-alanine aminopeptidase [3]): 0
Number positive results (β-alanine aminopeptidase [3]): 1
Number of negative results (β-alanine aminopeptidase [4]): 2
Number positive results (β-alanine aminopeptidase [4]): 0
Number of negative results (β-alanine aminopeptidase [5]): 0
Number positive results (β-alanine aminopeptidase [5]): 3
Number of negative results (β-alanine aminopeptidase [6]): 2
Number positive results (β-alanine aminopeptidase [6]): 0
Number of negative results (β-alanine aminopeptidase [7]): 2
Number positive results (β-alanine aminopeptidase [7]): 0
Number of negative results (β-alanine aminopeptidase [8]): 1
Number positive results (β-alanine aminopeptidase [8]): 0
Number of negative results (β-alanine aminopeptidase [9]): 0
Number positive results (β-alanine aminopeptidase [9]): 13
Number of negative results (β-alanine aminopeptidase [10]): 2
Number positive results (β-alanine aminopeptidase [10]): 0

β-alanyl-β-naphthylamide
β-alanine aminopeptidase activity, result (β-alanine aminopeptidase [11]): positive
β-alanine aminopeptidase activity, result (β-alanine aminopeptidase [12]): negative
β-alanine aminopeptidase activity, result (β-alanine aminopeptidase [13]): negative
β-alanine aminopeptidase activity, result (β-alanine aminopeptidase [14]): negative
β-alanine aminopeptidase activity, result (β-alanine aminopeptidase [15]): negative
β-alanine aminopeptidase activity, result (β-alanine aminopeptidase [16]): negative
β-alanine aminopeptidase activity, result (β-alanine aminopeptidase [17]): negative
β-alanine aminopeptidase activity, result (β-alanine aminopeptidase [18]): negative
β-alanine aminopeptidase activity, result (β-alanine aminopeptidase [19]): negative
β-alanine aminopeptidase activity, result (β-alanine aminopeptidase [20]): negative
β-alanine aminopeptidase activity, result (β-alanine aminopeptidase [21]): negative
β-alanine aminopeptidase activity, result (β-alanine aminopeptidase [22]): negative
β-alanine aminopeptidase activity, result (β-alanine aminopeptidase [23]): negative
β-alanine aminopeptidase activity, result (β-alanine aminopeptidase [24]): negative
β-alanine aminopeptidase activity, result (β-alanine aminopeptidase [25]): negative
β-alanine aminopeptidase activity, result (β-alanine aminopeptidase [26]): negative
β-alanine aminopeptidase activity, result (β-alanine aminopeptidase [27]): negative
β-alanine aminopeptidase activity, result (β-alanine aminopeptidase [28]): negative
β-alanine aminopeptidase activity, result (β-alanine aminopeptidase [29]): negative
β-alanine aminopeptidase activity, result (β-alanine aminopeptidase [30]): negative
β-alanine aminopeptidase activity, result (β-alanine aminopeptidase [31]): negative
β-alanine aminopeptidase activity, result (β-alanine aminopeptidase [32]): negative
β-alanine aminopeptidase activity, result (β-alanine aminopeptidase [33]): negative
β-alanine aminopeptidase activity, result (β-alanine aminopeptidase [34]): negative
number of species found to possess β-alanine aminopeptidase activity (β-alanine aminopeptidase [35]): 6 species
β-alanine aminopeptidase activity, result (β-alanine aminopeptidase [36]): negative
β-alanine aminopeptidase activity, result (β-alanine aminopeptidase [37]): negative
β-alanine aminopeptidase activity, result (β-alanine aminopeptidase [38]): negative
β-alanine aminopeptidase activity, result (β-alanine aminopeptidase [39]): negative
